These results are taken from publication PMC5943542, “Targeting LMW‐PTP to sensitize melanoma cancer cells toward chemo‐ and radiotherapy” (Cancer Medicine, 2018).

The assay has as its target T1, LMW-PTP (recombinant isoforms IF-A and IF-B) (Homo sapiens, UniProt P24666).
T1 construct: gene ACP1; purified recombinant human LMW-PTP, isoform A (IF-A) and isoform B (IF-B)
T1 sequence (P24666 2-158): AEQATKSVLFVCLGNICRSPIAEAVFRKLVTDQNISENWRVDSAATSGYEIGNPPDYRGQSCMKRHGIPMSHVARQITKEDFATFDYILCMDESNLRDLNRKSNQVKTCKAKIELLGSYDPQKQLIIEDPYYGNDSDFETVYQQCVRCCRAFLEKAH
As to the kind of experiment: p-nitrophenylphosphate hydrolysis kinetics with purified recombinant enzyme, double reciprocal plots. Type of assay: biochemical.

Turning to `O=c1c(O)c(-c2ccc(O)cc2O)oc2cc(O)cc(O)c12` [Morin], the Ki result is given as “micromolar range”.
